From patent US6653300B2, “Pyrazole compounds useful as protein kinase inhibitors” (Vertex Pharmaceuticals Incorporated, priority 2000, dated 2003)

What was measured:
GSK-3β (AA 1-420) = molecular target: T1, GSK-3β (AA 1-420) (Homo sapiens, UniProt P49841); assay: Ki determination for the inhibition of GSK-3 (coupled enzyme system); assay type: biochemical; conditions: 20 μM ATP, 20 nM GSK-3β, 30° C.
T1 construct: GSK-3β (AA 1-420)
In short: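 GSK-3β (AA 1-420, 20 nM) was run in a pyruvate kinase/LDH-coupled NADH assay in 100 mM HEPES pH 7.5, 10 mM MgCl2, 25 mM NaCl, 1 mM DTT, 1.5% DMSO, with 300 μM phosphopeptide substrate. Compound (0.002–30 μM) was preincubated 10 min at 30° C, then 20 μM ATP was added.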

Aurora-2 = molecular target: T2, Aurora-2 (Homo sapiens, UniProt O14965); assay: Ki determination for the inhibition of Aurora-2 (coupled enzyme assay); assay type: biochemical; conditions: 70 nM Aurora-2, 30° C.
T2 sequence (O14965 1-403): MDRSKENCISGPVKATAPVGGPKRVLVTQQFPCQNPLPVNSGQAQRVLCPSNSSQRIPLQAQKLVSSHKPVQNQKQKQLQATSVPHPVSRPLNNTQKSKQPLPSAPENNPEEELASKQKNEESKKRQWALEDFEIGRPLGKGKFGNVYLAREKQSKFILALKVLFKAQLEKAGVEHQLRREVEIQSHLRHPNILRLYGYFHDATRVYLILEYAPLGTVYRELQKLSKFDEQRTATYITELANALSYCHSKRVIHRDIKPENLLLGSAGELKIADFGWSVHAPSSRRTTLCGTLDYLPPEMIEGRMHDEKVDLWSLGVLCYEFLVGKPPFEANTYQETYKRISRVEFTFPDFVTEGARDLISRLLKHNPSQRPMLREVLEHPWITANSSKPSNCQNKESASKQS
In short: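 Ki came from reaction rates plotted against inhibitor concentration, with rates taken as A340 decrease over 5 min at 30° C. Enzyme (70 nM final) was added after 10 min compound preincubation; stock buffer held […], 800 μM LRRASLG, PK/LDH coupling, pH 7.5.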

activated ERK2 = activated ERK2 (Homo sapiens, UniProt P28482); assay: ERK inhibition assay (spectrophotometric coupled-enzyme assay); assay type: biochemical; conditions: 10 nM activated ERK2, 65 μM ATP, 30° C.; read-out: Ki values for ERK-2
Method: Compounds were assayed for the inhibition of ERK2 by a spectrophotometric coupled-enzyme assay (Fox et al (1998) Protein Sci 7, 2249).

human Src kinase = molecular target: T3, human Src kinase (Homo sapiens, UniProt P12931); assay: SRC inhibition assay (radioactivity-based or spectrophotometric assay); assay type: biochemical; conditions: recombinant human Src kinase; assay A or B; read-out: Ki value on SRC
T3 construct: full length recombinant human Src kinase (from Upstate Biotechnology, cat. no. 14-117); purchased Upstate Biotechnology 14-117; host or cells: baculo viral cells
In short: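 Full-length recombinant human Src from baculovirus was used. In the radiometric format, enzyme was preincubated 10 min at 30 °C, the reaction was started with ^33P-ATP and run 20 min, then TCA-quenched and filter-counted. The alternative format monitored poly Glu-Tyr phosphorylation by NADH-coupled A340 rate. Ki came from competitive-inhibition fits.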

T1 sequence (P49841 whole entry, the tested form may be a part): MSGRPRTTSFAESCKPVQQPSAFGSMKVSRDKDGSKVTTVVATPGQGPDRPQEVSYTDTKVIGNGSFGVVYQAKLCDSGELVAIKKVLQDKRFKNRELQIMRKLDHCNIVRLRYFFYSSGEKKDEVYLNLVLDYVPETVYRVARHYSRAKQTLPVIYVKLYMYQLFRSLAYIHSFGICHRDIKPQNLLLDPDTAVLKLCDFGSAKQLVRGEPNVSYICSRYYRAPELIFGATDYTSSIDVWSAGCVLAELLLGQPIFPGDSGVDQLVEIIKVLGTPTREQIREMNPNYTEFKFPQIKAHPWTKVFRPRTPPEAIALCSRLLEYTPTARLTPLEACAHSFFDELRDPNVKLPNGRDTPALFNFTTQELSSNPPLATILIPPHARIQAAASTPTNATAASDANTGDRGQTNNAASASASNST
activated ERK2, sequence (P28482 whole entry): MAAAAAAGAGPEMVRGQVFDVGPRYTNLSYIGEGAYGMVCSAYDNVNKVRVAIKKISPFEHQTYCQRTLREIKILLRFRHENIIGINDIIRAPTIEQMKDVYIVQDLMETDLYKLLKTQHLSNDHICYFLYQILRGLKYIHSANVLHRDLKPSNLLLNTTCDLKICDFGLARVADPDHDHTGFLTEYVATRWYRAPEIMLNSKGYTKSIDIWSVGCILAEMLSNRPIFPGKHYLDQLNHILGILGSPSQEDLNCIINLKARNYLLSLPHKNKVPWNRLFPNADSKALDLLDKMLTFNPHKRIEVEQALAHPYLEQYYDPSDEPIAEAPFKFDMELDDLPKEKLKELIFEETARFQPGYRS
T3 sequence (P12931 whole entry): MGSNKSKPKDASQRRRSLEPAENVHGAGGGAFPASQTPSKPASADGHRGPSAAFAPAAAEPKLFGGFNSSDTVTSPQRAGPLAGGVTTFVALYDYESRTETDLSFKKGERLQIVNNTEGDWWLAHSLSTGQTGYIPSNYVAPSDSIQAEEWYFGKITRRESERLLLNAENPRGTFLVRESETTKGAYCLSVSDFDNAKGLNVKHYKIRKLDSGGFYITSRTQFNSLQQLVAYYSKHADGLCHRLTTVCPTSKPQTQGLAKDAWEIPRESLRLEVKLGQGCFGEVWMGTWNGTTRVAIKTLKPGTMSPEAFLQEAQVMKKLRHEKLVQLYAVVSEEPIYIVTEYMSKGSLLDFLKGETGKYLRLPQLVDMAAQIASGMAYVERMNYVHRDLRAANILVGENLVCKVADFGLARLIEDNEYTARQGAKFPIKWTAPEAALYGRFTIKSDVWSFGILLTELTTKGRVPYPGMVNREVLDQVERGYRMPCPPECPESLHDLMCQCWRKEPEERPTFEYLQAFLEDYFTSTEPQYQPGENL

For c1ccc2c(Nc3cc(C4CC4)[nH]n3)nc(Nc3ccc4ncsc4c3)nc2c1 [IIc-32, [2-(Benzothiazol-6-ylamino)-quinazolin-4-yl]-(5-cyclopropyl-2H-pyrazol-3-yl)-amine], the Ki (GSK-3β (AA 1-420)) was under 100 nM, the Ki (Aurora-2) was under 100 nM and the melting point was 255 to 256 °C. For the same compound, the Ki (activated ERK2) was under 1000 nM and the Ki (human Src kinase) was under 100 nM.
